{
  "source": "patent US20050256112A1",
  "about": "“Combination of atypical antipsychotics and 5HT-1B receptor antagonists” (Pfizer Inc, priority 2004, published 2005)",
  "origin": "cited, not measured here",
  "key": {"[1]": {"conditions": "background statement"}, "white blood cell counts": {"tested_on": "white blood cell counts", "conditions": "background statement"}, "[2]": {"conditions": "in some mammals; background statement"}},
  "data": [
    {"compound": "Cc1cc2c(s1)Nc1ccccc1N=C2N1CCN(C)CC1", "note": "[Olanzapine, 2-methyl-4-(4-methyl-1-piperazinyl)-10H-thieno [2,3-b][1,5] benzodiazepine]", "values": [
      {"measurement": "weight gain", "setting": "[1]; in some cases", "value": "up to 1 pound per week"}
    ]},
    {"compound": "Cc1nc2n(c(=O)c1CCN1CCC(c3noc4cc(F)ccc34)CC1)CCCC2", "note": "[risperidone, 3-[2-[4-(6-fluoro-1,2-benzisoxazol-3-yl)piperidino]ethyl]-2-methyl-6,7,8,9-tetrahydro-4H-pyrido-[1,2-a]pyrimidin-4-one]", "values": [
      {"measurement": "weight gain (in words)", "setting": "[1]", "value": "minimal"},
      {"measurement": "effect on white blood cell count", "setting": "white blood cell counts", "value": "remains unaffected"}
    ]},
    {"compound": "OCCOCCN1CCN(C2=Nc3ccccc3Sc3ccccc32)CC1", "note": "[Quetiapine, 5-[2-(4-dibenzo[b,f][1,4]thiazepin-11-yl-1-piperazinyl)ethyoxy]ethanol]", "values": [
      {"measurement": "cataract formation", "setting": "[2]", "value": "cause cataract formation"}
    ]}
  ]
}
